In patent publication US20040132156A1, “Modified hepsin molecules having a substitute activation sequence and uses thereof” (Schering Aktiengesellschaft, priority 2002, published 2004):
Like-named read-outs stand apart in the source and are kept apart here.

Test system: hepsin mRNA in LNCaP cells
Conditions: DHT 10 nM, 24 or 72 hours, Northern blot, compared to GAPDH
Experimental: The prostate cancer cell lines, LNCaP, were obtained from ATCC. The LNCaP cells were treated with dihydrotestosterone (Sigma A 8380) in order to study the response of hepsin mRNA expression to androgens. The confluent cells were cultured in growth medium containing charcoal-stripped FBS for 24 hours. DHT was added to each flask at 10 nM. For control cells, ethanol was added as a vehicle control. The cells were incubated for 24 or 72 hours.
Total RNA was isolated from the cell lines using the RNeasy Maxi Kit (Qiagen), as described in section E above. The Northern gel and blot methods were performed as described in section A above.
The fold-increase of the amount of hepsin mRNA compared to GAPDH was performed according to section C above.

C[C@]12CCC(=O)C[C@@H]1CC[C@@H]1[C@@H]2CC[C@]2(C)[C@@H](O)CC[C@@H]12 [DHT, dihydrotestosterone]
hepsin mRNA transcript levels: increased | hepsin mRNA transcript levels (listed as dihydrotestosterone): Up-regulation
